These results are taken from patent publication US20210214375A1 (LUNDBECK LA JOLLA RESEARCH CENTER, INC., priority 2017, published 2021).

Read-outs that look alike come from different tables or passages of the source.

Assay [1] deals with T1, MAGL (Homo sapiens, UniProt Q99685).
T1 construct: Proteomes (human prefrontal cortex or cell membrane fractions); from tissue
T1 sequence (Q99685 1-303): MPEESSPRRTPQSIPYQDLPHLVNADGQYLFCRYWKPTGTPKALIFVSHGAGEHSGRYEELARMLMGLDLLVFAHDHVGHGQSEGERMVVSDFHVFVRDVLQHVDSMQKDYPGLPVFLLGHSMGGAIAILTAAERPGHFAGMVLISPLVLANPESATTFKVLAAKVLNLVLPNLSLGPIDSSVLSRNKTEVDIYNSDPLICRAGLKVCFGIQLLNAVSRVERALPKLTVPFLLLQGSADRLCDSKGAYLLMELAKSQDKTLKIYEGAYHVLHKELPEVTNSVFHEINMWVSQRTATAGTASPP
Kind of assay: In vitro competitive activity-based protein profiling (gel-based, FP-Rh or HT-01 probe). The class given is biochemical. The method, boiled down: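 Readout is SDS-PAGE of probe-labelled proteome after FP-Rh or HT-01 (1.0 μL, 50 μM stock) labelling for 30 min at room temperature. Beforehand, inhibitors at varying concentrations were preincubated 30 min at 37° C with human prefrontal cortex or cell membrane fractions at 1.0 mg/mL total protein.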

Assay [2] has as its target T2, MAGL (Mus musculus, UniProt O35678).
T2 construct: from tissue; host or cells: brain of wild-type C57Bl/6J mice
T2 sequence (O35678 1-303): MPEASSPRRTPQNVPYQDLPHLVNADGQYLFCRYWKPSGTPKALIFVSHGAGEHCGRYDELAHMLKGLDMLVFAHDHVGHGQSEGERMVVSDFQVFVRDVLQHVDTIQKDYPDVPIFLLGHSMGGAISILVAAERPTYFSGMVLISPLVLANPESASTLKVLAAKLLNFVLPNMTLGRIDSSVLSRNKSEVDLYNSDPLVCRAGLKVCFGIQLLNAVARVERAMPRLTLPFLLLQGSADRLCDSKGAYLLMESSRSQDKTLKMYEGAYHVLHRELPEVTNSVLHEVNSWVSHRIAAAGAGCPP
Kind of assay: Mouse brain proteomes from inhibitor treated mice (oral gavage, brain proteomes analyzed 4 h after administration). The note with it: brain proteome 4 h after administration, read-out: % Inh 5 mg/kg MGLL (Mouse). Type of assay: in vivo, mouse (C57Bl/6J). Summed up:
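Wild-type C57Bl/6J mice dosed orally in polyethylene glycol vehicle; brains removed 4 h post-dose and brain proteomes prepared and analysed for MAGL and serine hydrolase activity by previously established methods.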

Assay [3] has as its target T3, MGLL (Mus musculus, UniProt O35678).
T3 construct: Brain; from tissue; host or cells: mouse brain proteome
T3 sequence (O35678 1-303): T2 sequence (O35678 1-303)
Put plainly: In vitro competitive activity-based protein profiling, mouse brain proteome. Type of assay: biochemical. The method, then: [Worded in the source for another species; this species is reported under the same test.] (§1) Proteomes (human prefrontal cortex or cell membrane fractions) (50 μL, 1.0 mg/mL total protein concentration) were preincubated with varying concentrations of inhibitors at 37° C. After 30 min, FP—Rh or HT-01 (1.0 μL, 50 μM in DMSO) was added and the mixture was incubated for another 30 min at room temperature. Reactions were quenched with SDS loading buffer (15 μL-4×) and run on SDS-PAGE.

Assay [4] deals with T4, ABHD6 (Mus musculus, UniProt Q8R2Y0).
T4 construct: Brain; from tissue; host or cells: mouse brain proteome
T4 sequence (Q8R2Y0 1-336): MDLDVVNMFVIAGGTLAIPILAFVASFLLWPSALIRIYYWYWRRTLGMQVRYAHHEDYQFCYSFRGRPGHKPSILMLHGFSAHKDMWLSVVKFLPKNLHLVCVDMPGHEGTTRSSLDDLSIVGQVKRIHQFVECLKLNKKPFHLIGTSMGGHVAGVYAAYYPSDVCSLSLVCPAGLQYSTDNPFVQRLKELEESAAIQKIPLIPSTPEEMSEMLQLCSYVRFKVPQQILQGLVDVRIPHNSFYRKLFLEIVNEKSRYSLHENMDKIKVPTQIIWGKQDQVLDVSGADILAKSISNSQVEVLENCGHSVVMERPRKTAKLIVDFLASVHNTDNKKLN
Kind of assay: In vitro competitive activity-based protein profiling, mouse brain proteome, ABHD6. Type of assay: biochemical. The note with it: mouse. How it is done: [Worded in the source for another target; this target is reported under the same test.] as §1

The mark [5] stands for this setting: PC3 proteome, read-out: IC50 MGLL PC3 (Human).
[6] abbreviates: PFC (prefrontal cortex) proteome, read-out: IC50 MGLL PFC (Human).

Turning to `O=C(O)CN1CCN(c2cc(C(F)(F)F)ccc2CN2CCCC23CCN(C(=O)OC(C(F)(F)F)C(F)(F)F)CC3)CC1` [Example 3, 2-(4-(2-((8-(((1,1,1,3,3,3-Hexafluoropropan-2-yl)oxy)carbonyl)-1,8-diazaspiro[4.5]decan-1-yl)methyl)-5-(trifluoromethyl)phenyl)piperazin-1-yl)acetic acid], the concentration for half-maximal inhibition (IC50) was less than 0.1 µM in assay [1] (setting [5]), less than 0.1 µM in assay [1] (setting [6]), less than 0.1 µM in assay [3] and greater than 1 µM in assay [4]. Besides, the “% Inh MGLL PFC (Human, μM)” value in assay [1] (PFC (prefrontal cortex) proteome) was “### (### is ≥ 75%)”. For the same compound, in assay [2], the inhibition at 5 mg/kg was no more than 25%.

Take `O=C(OC(C(F)(F)F)C(F)(F)F)N1CCC2(CCCN2Cc2cc(C(F)(F)F)cc(C3(C(=O)O)CCCC3)c2)CC1` [Example 8, 1-(3-((8-(((1,1,1,3,3,3-Hexafluoropropan-2-yl)oxy)carbonyl)-1,8-diazaspiro[4.5]decan-1-yl)methyl)-5-(trifluoromethyl)phenyl)cyclopentane-1-carboxylic acid]: the half-maximal inhibitory concentration (IC50) in assay [1] (setting [5]) was less than 0.1 µM; in assay [1] (setting [6]), less than 0.1 µM; in assay [3] it was less than 0.1 µM; in assay [4] it was greater than 1 µM. Further, the inhibition at 5 mg/kg in assay [2] was no less than 75%.

Regarding `O=C(O)C1CN(c2cc(C(F)(F)F)ccc2CN2CC3(CCN(C(=O)OC(C(F)(F)F)C(F)(F)F)CC3)C2)CCO1` (stereo not shown) [Example 20, 4-(2-((7-(((1,1,1,3,3,3-Hexafluoropropan-2-yl)oxy)carbonyl)-2,7-diazaspiro[3.5]nonan-2-yl)methyl)-5-(trifluoromethyl)phenyl)morpholine-2-carboxylic acid], the half-inhibitory concentration (IC50) in assay [1] (setting [5]) was less than 0.1 µM; in assay [1] (setting [6]) it was less than 0.1 µM; in assay [3], less than 0.1 µM; in assay [4], greater than 1 µM. The inhibition at 5 mg/kg in assay [2] is no less than 75%.

`O=C(O)C1CCN(c2cc(CN3CC4(CCN(C(=O)OC(C(F)(F)F)C(F)(F)F)CC4)C3)cc(C(F)(F)F)c2)CC1` [Example 99, 1-(3-((7-(((1,1,1,3,3,3-Hexafluoropropan-2-yl)oxy)carbonyl)-2,7-diazaspiro[3.5]nonan-2-yl)methyl)-5-(trifluoromethyl)phenyl)piperidine-4-carboxylic acid]: the IC50 in assay [1] (setting [5]) was less than 0.1 µM; in assay [1] (setting [6]), less than 0.1 µM; in assay [3], less than 0.1 µM; in assay [4], 0.1 to 1 µM. Also, in assay [2], the inhibition at 5 mg/kg was 25 to 75%.

Take `CN(Cc1ccc(C(F)(F)F)cc1N1CCOC(C(=O)O)C1)C1(C)CCN(C(=O)OC(C(F)(F)F)C(F)(F)F)CC1` (stereo not shown) [Example 108, 4-(2-(((1-(((1,1,1,3,3,3-Hexafluoropropan-2-yl)oxy)carbonyl)-4-methylpiperidin-4-yl)(methyl)amino)methyl)-5-(trifluoromethyl)phenyl)morpholine-2-carboxylic acid]: the IC50 in assay [1] (setting [5]) is less than 0.1 µM; in assay [3] it was less than 0.1 µM; in assay [4] it was 0.1 to 1 µM. Also, in assay [2], the inhibition at 5 mg/kg was no more than 25%.

For `CC(=O)N1CC2(CCN(c3ccccc3CN3CCN(C(=O)OC(C(F)(F)F)C(F)(F)F)CC3)C2)C1` [Example 168, 1,1,1,3,3,3-Hexafluoropropan-2-yl 4-(2-(2-acetyl-2,6-diazaspiro[3.4]oetan-6-yl)benzyl)piperazine-1-carboxylate], the IC50 was less than 0.1 µM in assay [1] (setting [5]), less than 0.1 µM in assay [3] and greater than 1 µM in assay [4]. The inhibition at 5 mg/kg in assay [2] is no less than 75%.

For the compound `CS(=O)(=O)N1CCC2(CCN(c3cc(Cl)ccc3CN3CCN(C(=O)OC(C(F)(F)F)C(F)(F)F)CC3)CC2)C1` [Example 174, 1,1,1,3,3,3-Hexafluoropropan-4-(4-chloro-2-(2-(methylsulfonyl)-2,8-diazaspiro[4.5]decan-8-yl)benzyl)piperazine-1-carboxylate], the half-maximal inhibitory concentration (IC50) in assay [1] (setting [5]) is less than 0.1 µM; in assay [3], less than 0.1 µM; in assay [4], greater than 1 µM. For the same compound, the inhibition at 5 mg/kg in assay [2] is no less than 75%.

On to `CC(=O)N1CC2(CCN(c3cc(C(F)(F)F)ccc3CN3CCN(C(=O)OC(C(F)(F)F)C(F)(F)F)CC3)C2)C1` [Example 180, 1,1,1,3,3,3-Hexafluoropropan-2-yl 4-(2-(2-acetyl-2,6-diazaspiro[3.4]octan-6-yl)-4-(trifluoromethyl)benzyl)piperazine-1-carboxylate], for which the 50% inhibitory concentration (IC50) in assay [1] (setting [5]) was less than 0.1 µM; in assay [3] it was less than 0.1 µM; in assay [4], greater than 1 µM. The inhibition at 5 mg/kg in assay [2] is no less than 75%.

In the case of `CCN1CCC2(CCN(c3cc(C(F)(F)F)ccc3CN3CCN(C(=O)OC(C(F)(F)F)C(F)(F)F)CC3)CC2)C1` [Example 183, 1,1,1,3,3,3-Hexafluoropropan-2-yl 4-(2-(2-ethyl-2,8-diazaspiro[4.5]decan-8-yl)-4-(trifluoromethyl)benzyl)piperazine-1-carboxylate], the values for the IC50 in assay [1] (setting [5]), in assay [3] and in assay [4] were less than 0.1 µM, less than 0.1 µM and greater than 1 µM, respectively. In assay [2], the inhibition at 5 mg/kg was no more than 25%.

As for `CS(=O)(=O)N1CCC2(CCN(c3cc(C(F)(F)F)ccc3CN3CCN(C(=O)OC(C(F)(F)F)C(F)(F)F)CC3)CC2)C1` [Example 185, 1,1,1,3,3,3-Hexafluoropropan-2-yl 4-(2-(2-(methylsulfonyl)-2,8-diazaspiro[4.5]decan-8-yl)-4-- (trifluoromethyl)benzyl)piperazine-1-carboxylate], the IC50 in assay [1] (setting [5]) was less than 0.1 µM; in assay [1] (setting [6]) it was less than 0.1 µM; in assay [3] it was less than 0.1 µM; in assay [4], greater than 1 µM. Moreover, the inhibition at 5 mg/kg in assay [2] is no less than 75%.

Consider `CS(=O)(=O)N1CC2(CCN(c3cc(C(F)(F)F)ccc3CN3CCN(C(=O)OC(C(F)(F)F)C(F)(F)F)CC3)C2)C1` [Example 186, 1,1,1,3,3,3-Hexafluoropropan-2-yl 4-(2-(2-(methylsulfonyl)-2,6-diazaspiro[3.4]octan-6-yl)-4-(trifluoromethyl)benzyl)piperazine-1-carboxylate], for which the IC50 in assay [1] (setting [5]) was less than 0.1 µM; in assay [3], less than 0.1 µM; in assay [4], greater than 1 µM. Moreover, the inhibition at 5 mg/kg in assay [2] is no less than 75%.

As for `CC(=O)N1CCC2(CCN(c3cc(C(F)(F)F)ccc3CN3CCN(C(=O)OC(C(F)(F)F)C(F)(F)F)CC3)CC2)C1` [Example 189, 1,1,1,3,3,3-Hexafluoropropan-2-yl 4-(2-(2-acetyl-2,8-diazaspiro[4.5]decan-8-yl)-4-(trifluoromethyl)benzyl)piperazine-1-carboxylate], the values for the IC50 in assay [1] (setting [5]), in assay [3] and in assay [4] were less than 0.1 µM, less than 0.1 µM and greater than 1 µM, respectively. Besides, the inhibition at 5 mg/kg in assay [2] is no less than 75%.

Take `CC(=O)N1CC2(CCN(c3cc(C(F)(F)F)ccc3CN3CCN(C(=O)OC(C(F)(F)F)C(F)(F)F)CC3)CC2)C1` [Example 216, 1,1,1,3,3,3-Hexafluoropropan-2-yl 4-(2-(2-acetyl-2,7-diazaspiro[3.5]nonan-7-yl)-4-(trifluoromethyl)benzyl)piperazine-1-carboxylate]: the IC50 in assay [1] (setting [5]) is less than 0.1 µM; in assay [3] it was less than 0.1 µM; in assay [4], greater than 1 µM. In assay [2], the inhibition at 5 mg/kg is no less than 75%.
